Test results as given in patent US20170215422A1, “NOVEL CYCLIC DEPSIPEPTIDE DERIVATIVES AND HARMFUL ORGANISM CONTROL AGENTS COMPRISING THE SAME” (priority 2012, published 2017).

Test system: adult of Ascaridiidae galli
Assay: Anthelminticidal effect against adult of Ascaridiidae galli (in-vitro test)
Settings: 50 ppm; six adults per culture solution; 41° C.; 24 hr
Experimental: The activity of compounds was evaluated based on a change in motility of adults of A. galli. Compounds of the present invention were dissolved in dimethyl sulfoxide, and the solution was added to a culture solution of A. galli that had been dissolved in a Ringer's solution to a compound concentration of 50 ppm. Six adults of A. galli were placed per culture solution, followed by culturing at 41° C.

| Structure (SMILES) | anthelminticidal activity (adults that stopped automatic motility) |
| --- | --- |
| CCCCCC1OC(=O)C(C)N(C)C(=O)C(CCCCC)OC(=O)C(C)N(C)C(=O)C(CCCCC)OC(=O)C(C)N(C)C(=O)C(CCCCC)OC(=O)CN(C)C1=O (stereo not drawn) [Compound 1] | four insects that had stopped automatic motility |
| CCCCCCC1OC(=O)CN(C)C(=O)C(CCCCC)OC(=O)C(C)N(C)C(=O)C(CCCCC)OC(=O)C(C)N(C)C(=O)C(CCCCC)OC(=O)C(C)N(C)C1=O [Compound 2, Cycro(-N-Me-L-Gly-(R)-Oct-N-Me-L-Ala-(R)Hep-N-Me-L-Ala-(R)-Hep-N-Me-L-Ala-(R)-Hep-)] | four insects that had stopped automatic motility |
| CCCCCC1OC(=O)C(C)N(C)C(=O)C(CCCC)OC(=O)C(C)N(C)C(=O)C(CCCCC)OC(=O)C(C)N(C)C(=O)C(CCCCC)OC(=O)C(C)N(C)C1=O (stereo not drawn) [Compound 6] | four insects that had stopped automatic motility |
| CCCCCC1OC(=O)C(C)N(C)C(=O)C(CCCCC)OC(=O)C(CC)N(C)C(=O)C(CCCCC)OC(=O)C(C)N(C)C(=O)C(CCCCC)OC(=O)C(C)N(C)C1=O (stereo not drawn) [Compound 10] | four insects that had stopped automatic motility |
| CCCCCC1OC(=O)C(C)N(C)C(=O)C(CCCCC)OC(=O)C(CCC)N(C)C(=O)C(CCCCC)OC(=O)C(C)N(C)C(=O)C(CCCCC)OC(=O)C(C)N(C)C1=O (stereo not drawn) [Compound 19] | four insects that had stopped automatic motility |
| CCCCCC1OC(=O)C(C)N(C)C(=O)C(CCCCC)OC(=O)C(C)N(C)C(=O)C(CC(C)C)OC(=O)C(C)N(C)C(=O)C(CCCCC)OC(=O)C(C)N(C)C1=O (stereo not drawn) [Compound 61] | four insects that had stopped automatic motility |

Test system: Musca domestica
Assay: Control effect against Musca domestica adults (sucrose solution on swab)
Type: in vivo
Settings: 50 ppm in 40% sucrose solution, 4 days
Experimental: A chemical solution of the compound according to the present invention that had been adjusted with a 40% sucrose solution to a concentration of 50 ppm was adsorbed on a swab, and the swab was placed in a vial. Two adults of Musca domestica grown in a room were released, followed by standing in a room at a room temperature of 25° C. […] When two insects were in a dead or anguished state, the test compound was determined to be effective.

| Structure (SMILES) | insecticidal activity (two adults dead or anguished = effective) |
| --- | --- |
| CCCCCC1OC(=O)C(C)N(C)C(=O)C(CCCCC)OC(=O)C(C)N(C)C(=O)C(CCCCC)OC(=O)C(C)N(C)C(=O)C(CCCCC)OC(=O)CN(C)C1=O (stereo not drawn) [Compound 1] | two insects were brought to a dead or anguished state |
| CCCCCCCCC1OC(=O)CN(C)C(=O)C(CCCCC)OC(=O)C(C)N(C)C(=O)C(CCCCC)OC(=O)C(C)N(C)C(=O)C(CCCCC)OC(=O)C(C)N(C)C1=O (stereo not drawn) [Compound 4] | two insects were brought to a dead or anguished state |
| CCCCCCCCC1OC(=O)C(C)N(C)C(=O)C(CCCCC)OC(=O)C(C)N(C)C(=O)C(CCCCC)OC(=O)C(C)N(C)C(=O)C(CCCCC)OC(=O)C(C)N(C)C1=O (stereo not drawn) [Compound 8] | two insects were brought to a dead or anguished state |
| CCCCCCCCCC1OC(=O)C(C)N(C)C(=O)C(CCCCC)OC(=O)C(C)N(C)C(=O)C(CCCCC)OC(=O)C(C)N(C)C(=O)C(CCCCC)OC(=O)C(C)N(C)C1=O (stereo not drawn) [Compound 9] | two insects were brought to a dead or anguished state |
| CCCCCCC1OC(=O)C(CC)N(C)C(=O)C(CCCCC)OC(=O)C(C)N(C)C(=O)C(CCCCC)OC(=O)C(C)N(C)C(=O)C(CCCCC)OC(=O)C(C)N(C)C1=O (stereo not drawn) [Compound 11] | two insects were brought to a dead or anguished state |
| CCCCCCCC1OC(=O)C(CC)N(C)C(=O)C(CCCCC)OC(=O)C(C)N(C)C(=O)C(CCCCC)OC(=O)C(C)N(C)C(=O)C(CCCCC)OC(=O)C(C)N(C)C1=O (stereo not drawn) [Compound 12] | two insects were brought to a dead or anguished state |
| CCCCCCCCC1OC(=O)C(CC)N(C)C(=O)C(CCCCC)OC(=O)C(C)N(C)C(=O)C(CCCCC)OC(=O)C(C)N(C)C(=O)C(CCCCC)OC(=O)C(C)N(C)C1=O (stereo not drawn) [Compound 13] | two insects were brought to a dead or anguished state |
| CCCCCC1OC(=O)C(C)N(C)C(=O)C(CCCCC)OC(=O)C(CCCC)N(C)C(=O)C(CCCCC)OC(=O)C(C)N(C)C(=O)C(CCCCC)OC(=O)C(C)N(C)C1=O (stereo not drawn) [Compound 15] | two insects were brought to a dead or anguished state |
| CCCCCCCC1OC(=O)C(CCCC)N(C)C(=O)C(CCCCC)OC(=O)C(C)N(C)C(=O)C(CCCCC)OC(=O)C(C)N(C)C(=O)C(CCCCC)OC(=O)C(C)N(C)C1=O [Compound 16, Cycro(-N-Me-L-Nle (R)-Nna-N-Me-L-Ala-(R)-Hep-N-Me-L-Ala-(R)-Hep-N-Me-L-Ala-(R)-Hep-)] | two insects were brought to a dead or anguished state |
| CCCCCCCC1OC(=O)C(CCC)N(C)C(=O)C(CCCCC)OC(=O)C(C)N(C)C(=O)C(CCCCC)OC(=O)C(C)N(C)C(=O)C(CCCCC)OC(=O)C(C)N(C)C1=O (stereo not drawn) [Compound 21] | two insects were brought to a dead or anguished state |
| CCCCCCCCC1OC(=O)C(CCC)N(C)C(=O)C(CCCCC)OC(=O)C(C)N(C)C(=O)C(CCCCC)OC(=O)C(C)N(C)C(=O)C(CCCCC)OC(=O)C(C)N(C)C1=O (stereo not drawn) [Compound 22] | two insects were brought to a dead or anguished state |
| CCCCCCCCCC1OC(=O)C(CCC)N(C)C(=O)C(CCCCC)OC(=O)C(C)N(C)C(=O)C(CCCCC)OC(=O)C(C)N(C)C(=O)C(CCCCC)OC(=O)C(C)N(C)C1=O (stereo not drawn) [Compound 23] | two insects were brought to a dead or anguished state |
| CCCCCCC[C@H]1OC(=O)[C@H](CC(C)C)N(C)C(=O)[C@@H](CCCCC)OC(=O)[C@H](C)N(C)C(=O)[C@H](CCCCC)OC(=O)[C@H](C)N(C)C(=O)[C@@H](CCCCC)OC(=O)[C@H](C)N(C)C1=O [Compound 28] | two insects were brought to a dead or anguished state |
| CCCCCCCC[C@H]1OC(=O)[C@H](CC(C)C)N(C)C(=O)[C@@H](CCCCC)OC(=O)[C@H](C)N(C)C(=O)[C@H](CCCCC)OC(=O)[C@H](C)N(C)C(=O)[C@@H](CCCCC)OC(=O)[C@H](C)N(C)C1=O [Compound 29] | two insects were brought to a dead or anguished state |
| CCCCCCCC1OC(=O)C(CC(C)C)N(C)C(=O)C(CCCCC)OC(=O)CN(C)C(=O)C(CCCCC)OC(=O)CN(C)C(=O)C(CCCCC)OC(=O)CN(C)C1=O (stereo not drawn) [Compound 32] | two insects were brought to a dead or anguished state |
| CCCCCC1OC(=O)C(CC(C)C)N(C)C(=O)C(CCCCC)OC(=O)C(CC(C)C)N(C)C(=O)C(CCCCC)OC(=O)C(CC(C)C)N(C)C(=O)C(CCCCC)OC(=O)CN(C)C1=O (stereo not drawn) [Compound 33] | two insects were brought to a dead or anguished state |
| CCCCC[C@H]1OC(=O)CN(C)C(=O)[C@@H](CCCCC)OC(=O)[C@H](CC(C)C)N(C)C(=O)[C@@H](CCCCC)OC(=O)[C@H](CC(C)C)N(C)C(=O)[C@@H](CCCCC)OC(=O)CN(C)C1=O [Compound 47, Cycro(-N-Me-L-Gly-(R)-Hep-N-Me-L-Gly-(R)-Hep-N-Me-L-Leu-(R)-Hep-N-Me-L-Leu-(R)-Hep-)] | two insects were brought to a dead or anguished state |
| CCCCCC1OC(=O)C(CC(C)C)N(C)C(=O)C(CCCCC)OC(=O)C(CCC)N(C)C(=O)C(CCCCC)OC(=O)C(CCC)N(C)C(=O)C(CCCCC)OC(=O)CN(C)C1=O (stereo not drawn) [Compound 60] | two insects were brought to a dead or anguished state |
